Measured values reported in patent US10793514B2, “Glutamine transport inhibitors and methods for treating cancer” (Vanderbilt University, priority 2016, dated 2020).
“Also recorded” adds a separate entry of the source.

How the values were obtained:
[1] = Tolerability in chronic exposure studies (body mass, liver pathology); assay type: in vivo, mouse; conditions: 75 mg/kg per day, 21 days, vs vehicle
[2] = system: HCC1806 cell line xenograft; assay: [18F]-4F-glutamine PET imaging; assay type: in vivo, mouse; conditions: single dose 75 mg/kg, 4 h
Experimental: Animal handling methods for PET imaging studies were conducted as reported^5,42 Prior to imaging, animals were allowed to acclimate to facility environment for at least 1 h in a warmed chamber at 31.5° C. Animals were administered 10.4-11.8 MBq 4-[^18F]fluoroglutamine via intravenous injection and imaged using a Concorde Microsystems Focus 220 microPET scanner (Siemens Preclinical Solutions). During imaging, animals were maintained under 2% isoflurane anesthesia in oxygen at 2 L/min and kept warm for the duration of the PET scan. PET images in xenograft-bearing mice were acquired as 60-minute dynamic data sets. […] PET data were reconstructed using a three-dimensional (3D) ordered subset expectation maximization/maximum a posteriori (OSEM3D/MAP) algorithm. […] ASIPro software (Siemens Preclinical Solutions) was used to manually draw 3D regions of interest (ROIs) surrounding the entire tumor volume. 4-[^18F]fluoroglutamine uptake was quantified as the percentage of the injected dose per gram of tissue (% ID/g). Significance was calculated using a t-test in Graphpad Prism. Error is reported as standard deviation (SD).
For in vivo studies, cell-line xenograft tumors were propagated in 6-week old, female athymic nude mice from immortalized cell lines. […] Tumor volumes were measured manually using calipers every third day and quantified using the formula V=W·L·(H/2).

## Cc1cccc(COc2ccccc2CN(CCC(N)C(=O)O)Cc2ccccc2OCc2cccc(C)c2)c1 (stereo not drawn) [Compound V-9302]
[1]; athymic nude mice, H&E
  liver pathology: similar; also recorded: no discernible difference
[1]; chronic exposure
  weight loss: no significant weight loss
[2]
  reduction of [18F]-4F-glutamine uptake in tumors: approximately 50%
